The results in this text go back to ChEMBL document CHEMBL3393036, “Tetra-substituted pyridinylimidazoles as dual inhibitors of p38α mitogen-activated protein kinase and c-Jun N-terminal kinase 3 for potential treatment of neurodegenerative diseases” (J Med Chem, 2015).

Data set [1] deals with Mitogen-activated protein kinase 10 (Homo sapiens, UniProt P53779). In words: Inhibition of JNK3 (unknown origin) assessed as phosphorylation of ATF-2 by ELISA. (In general: An ELISA detects its analyte on a solid surface through an enzyme-linked reagent.)
Data set [2] addresses Mitogen-activated protein kinase 14 (Homo sapiens, UniProt Q16539). In words: Inhibition of p38alpha (unknown origin) assessed as phosphorylation of ATF-2 by ELISA.
For data set [3], the species on record is Homo sapiens. In words: Selectivity ratio of IC50 for JNK3 (unknown origin) to IC50 for p38alpha (unknown origin).
Data set [4] can be described thus: Solubility in aqueous PBS-buffer at pH 7.4. Type of data set: physicochemical.
A short description of data set [5]: Metabolic stability in human liver microsomes assessed as compound remaining after 240 mins by LC-MS/MS analysis. Type of data set: ADME. The conditions noted are these: read-out: Stability. For orientation: Microsomes from liver hold many membrane-bound enzymes, among them those of drug oxidation.
In data set [6] the test system is U2OS. In words: Cytotoxicity against human U2OS cells assessed as morphology up to 50 uM by DAPI staining assay. In kind it is cell-based.

≈ marks a conversion by molar mass, not a printed value.

Sequence of Mitogen-activated protein kinase 14 (Q16539 whole entry): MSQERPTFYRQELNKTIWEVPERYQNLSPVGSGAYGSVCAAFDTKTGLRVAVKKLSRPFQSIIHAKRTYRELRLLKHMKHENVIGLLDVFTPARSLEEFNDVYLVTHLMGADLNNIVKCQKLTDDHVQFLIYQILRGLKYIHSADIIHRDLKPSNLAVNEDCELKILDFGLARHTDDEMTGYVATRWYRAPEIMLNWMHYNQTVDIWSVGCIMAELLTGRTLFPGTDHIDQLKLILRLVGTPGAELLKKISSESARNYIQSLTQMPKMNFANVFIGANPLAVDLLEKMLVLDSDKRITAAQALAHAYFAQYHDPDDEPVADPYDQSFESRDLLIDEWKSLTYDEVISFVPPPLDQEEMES
Sequence of Mitogen-activated protein kinase 10 (P53779 whole entry): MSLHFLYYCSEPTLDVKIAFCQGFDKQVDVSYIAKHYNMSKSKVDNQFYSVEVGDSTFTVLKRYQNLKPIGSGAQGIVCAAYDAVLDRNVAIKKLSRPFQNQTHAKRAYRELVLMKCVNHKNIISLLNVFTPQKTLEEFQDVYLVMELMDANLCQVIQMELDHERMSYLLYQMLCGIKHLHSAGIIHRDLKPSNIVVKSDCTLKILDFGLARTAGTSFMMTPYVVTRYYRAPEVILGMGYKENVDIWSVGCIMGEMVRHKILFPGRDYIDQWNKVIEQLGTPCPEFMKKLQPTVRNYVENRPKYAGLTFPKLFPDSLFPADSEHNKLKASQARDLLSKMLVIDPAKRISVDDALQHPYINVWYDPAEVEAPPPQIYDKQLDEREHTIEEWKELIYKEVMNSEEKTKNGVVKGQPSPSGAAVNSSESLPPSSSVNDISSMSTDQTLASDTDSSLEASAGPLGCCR

In the case of `COC(Cn1c(SCC#N)nc(-c2ccc(F)cc2)c1-c1ccnc(F)c1)OC`, the half-maximal inhibitory concentration (IC50) – broadly, the concentration that inhibits the measured activity by half – is 4220 nM in data set [1] and 642 nM in data set [2]. In data set [3], the Ratio IC50 was 6.6.

In the case of `O=C(O)/C=C\Sc1nc(-c2ccc(F)cc2)c(-c2ccnc(Nc3ccccc3)c2)n1CC1CC1`, the 50% inhibitory concentration (IC50) worked out at 54 nM in data set [1] and 354 nM in data set [2]. Besides, in data set [3], the Ratio IC50 came to 0.2.

With `CCNC(=O)N1CCC(Nc2cc(-c3c(-c4ccc(F)cc4)nc(S/C=C\C(=O)O)n3C)ccn2)CC1`, the IC50 in data set [1] amounted to 61 nM; in data set [2], 146 nM. Further, the Ratio IC50 in data set [3] came to 0.4.

As for `CC(=O)Nc1cc(-c2c(-c3ccc(F)cc3)nc(SC3CCC(C(=O)O)CC3O)n2C2CCCCC2)ccn1` (stereo not given), the IC50 in data set [1] amounted to 79 nM; in data set [2] it was 416 nM. Also, the Ratio IC50 in data set [3] came out at 0.2.

Consider `CCC(C)Nc1cc(-c2c(-c3ccc(F)cc3)nc(S/C=C\C(=O)O)n2CC(OC)OC)ccn1` (stereo not given), for which the IC50 in data set [1] was 26 nM; in data set [2], 34 nM. Further, the Ratio IC50 in data set [3] is 0.8. The amount in solution in data set [4] (solubility) came to 930 µg/mL (≈ 1860 µM). Also, the remaining at 4 h in data set [5] is 56%. In data set [6], the Activity result is listed as “Non-toxic”.

On to `COC(Cn1c(SCCC(=O)O)nc(-c2ccc(F)cc2)c1-c1ccnc(NC(C)=O)c1)OC`, for which the concentration for half-maximal inhibition (IC50) in data set [1] came to 269 nM; in data set [2] it was 1700 nM. Further, in data set [3], the Ratio IC50 is 0.2.

Regarding `CC(=O)Nc1cc(-c2c(-c3ccc(F)cc3)nc(S/C=C\C(=O)O)n2C)ccn1`, the half-inhibitory concentration (IC50) is 55 nM in data set [1] and 191 nM in data set [2]. In addition, in data set [3], the Ratio IC50 worked out at 0.3.

For the molecule `O=C(O)/C=C/Sc1nc(-c2ccc(F)cc2)c(-c2ccnc(Nc3ccccc3)c2)n1CC1CC1`, the IC50 in data set [1] was 213 nM; in data set [2] it was 181 nM. Moreover, in data set [3], the Ratio IC50 worked out at 1.2.

As for `CC(=O)Nc1cc(-c2c(-c3ccc(F)cc3)nc(S/C=C/C(=O)O)n2CC2CC2)ccn1`, the values for the IC50 in data set [1] and in data set [2] were 170 nM and 208 nM, respectively. Besides, in data set [3], the Ratio IC50 came to 0.8.

On to `CCOC(=O)/C=C/Sc1nc(-c2ccc(F)cc2)c(-c2ccnc(NC(C)=O)c2)n1CC1CC1`, for which the IC50 in data set [1] is 1220 nM; in data set [2] it was 655 nM. Moreover, in data set [3], the Ratio IC50 came to 1.8.

`COC(Cn1c(S/C=C\C(=O)O)nc(-c2ccc(F)cc2)c1-c1ccnc(NC(C)=O)c1)OC`: the IC50 in data set [1] was 33 nM; in data set [2] it was 335 nM. Besides, the Ratio IC50 in data set [3] amounted to 0.1.

As for `COC(Cn1c(S/C=C\C(=O)O)nc(-c2ccc(F)cc2)c1-c1ccnc(NC2CC2)c1)OC`, the IC50 was found to be 12 nM in data set [1] and 128 nM in data set [2]. Besides, the Ratio IC50 in data set [3] worked out at 0.1.

For `O=C(O)/C=C\Sc1nc(-c2ccc(F)cc2)c(-c2ccnc(Nc3ccccc3)c2)[nH]1`, the IC50 stood at 17 nM in data set [1] and 36 nM in data set [2]. Besides, the Ratio IC50 in data set [3] was 0.5. In data set [6], the Activity entry is recorded as “Non-toxic”.

Take `COC(=O)CSc1nc(-c2ccc(F)cc2)c(-c2ccnc(NC(C)=O)c2)n1C`: the figures for the IC50 in data set [1] and in data set [2] were 199 nM and 297 nM, respectively. For the same molecule, in data set [3], the Ratio IC50 worked out at 0.7.

As for `CC(=O)CSc1nc(-c2ccc(F)cc2)c(-c2ccnc(NC(C)=O)c2)n1C`, the values for the IC50 in data set [1] and in data set [2] were 255 nM and 36 nM, respectively. Besides, the Ratio IC50 in data set [3] turned out to be 7.1.

For `CC(=O)Nc1cc(-c2c(-c3ccc(F)cc3)nc(SC3CCC(C(=O)O)CC3O)n2C)ccn1` (stereo not given), the IC50 was determined as 180 nM in data set [1] and 764 nM in data set [2]. In data set [3], the Ratio IC50 is 0.2.

In the case of `CC(=O)Nc1cc(-c2c(-c3ccc(F)cc3)nc(S/C=C\C(=O)O)n2CC2CCCCC2)ccn1`, the values for the IC50 in data set [1] and in data set [2] were 25 nM and 39 nM, respectively. Moreover, the Ratio IC50 in data set [3] came out at 0.6.

On to `CCOC(=O)/C=C\Sc1nc(-c2ccc(F)cc2)c(-c2ccnc(Nc3ccccc3)c2)[nH]1`, for which the half-inhibitory concentration (IC50) worked out at 80 nM in data set [1] and 146 nM in data set [2]. In data set [3], the Ratio IC50 turned out to be 0.5.

On to `CC(=O)Nc1cc(-c2c(-c3ccc(F)cc3)nc(SCCC(=O)O)n2C)ccn1`, for which the 50% inhibitory concentration (IC50) is 91 nM in data set [1] and 246 nM in data set [2]. Moreover, in data set [3], the Ratio IC50 amounted to 0.4.

On to `CC(=O)Nc1cc(-c2c(-c3ccc(F)cc3)nc(S/C=C\C(=O)O)n2CC2CC2)ccn1`, for which the 50% inhibitory concentration (IC50) was determined as 18 nM in data set [1] and 30 nM in data set [2]. Further, the Ratio IC50 in data set [3] came to 0.6. The amount in solution in data set [4] (solubility) came to 1200 µg/mL (≈ 2650 µM). Moreover, the remaining at 4 h in data set [5] came to 70%. The Activity result in data set [6] was “Non-toxic”.

On to `COC(Cn1c(SCC#N)nc(-c2ccc(F)cc2)c1-c1ccnc(NC2CC2)c1)OC`, for which the concentration for half-maximal inhibition (IC50) in data set [1] stood at 79 nM; in data set [2], 153 nM. The Ratio IC50 in data set [3] is 0.5. For the same molecule, the Activity result in data set [6] is recorded as “Non-toxic”.

With `CCOC(=O)/C=C/Sc1nc(-c2ccc(F)cc2)c(-c2ccnc(NC(C)=O)c2)n1C1CC1`, the half-maximal inhibitory concentration (IC50) in data set [1] was found to be 678 nM; in data set [2], 451 nM. In addition, the Ratio IC50 in data set [3] turned out to be 1.5.

For the molecule `CC(=O)Nc1cc(-c2c(-c3ccc(F)cc3)nc(SCC(=O)O)n2C)ccn1`, the IC50 came out at 266 nM in data set [1] and 1670 nM in data set [2]. Further, the Ratio IC50 in data set [3] was 0.2.

`CC(=O)Nc1cc(-c2c(-c3ccc(F)cc3)nc(SCC(=O)N(C)C)n2C)ccn1`: the figures for the IC50 in data set [1] and in data set [2] were 1190 nM and 140 nM, respectively. Besides, in data set [3], the Ratio IC50 stood at 8.5.

Turning to `CC(=O)Nc1cc(-c2c(-c3ccc(F)cc3)nc(SC3CCC(C(=O)O)CC3O)n2CC2CCCO2)ccn1` (racemic), the half-inhibitory concentration (IC50) worked out at 2630 nM in data set [1] and 612 nM in data set [2]. Also, in data set [3], the Ratio IC50 amounted to 4.3.

In the case of `CCOC(=O)/C=C/Sc1nc(-c2ccc(F)cc2)c(-c2ccnc(NC(C)=O)c2)n1CC(OC)OC`, the half-inhibitory concentration (IC50) in data set [1] amounted to 2170 nM; in data set [2], 2180 nM. Further, in data set [3], the Ratio IC50 was determined as 1.

As for `CC(=O)Nc1cc(-c2c(-c3ccc(F)cc3)nc(S/C=C\C(=O)O)n2C2CCCC2)ccn1`, the values for the IC50 in data set [1] and in data set [2] were 45 nM and 164 nM, respectively. In addition, the Ratio IC50 in data set [3] came out at 0.3.

With `CC(=O)Nc1cc(-c2c(-c3ccc(F)cc3)nc(S/C=C\C(=O)O)n2C2CCC2)ccn1`, the IC50 amounted to 47 nM in data set [1] and 211 nM in data set [2]. Besides, the Ratio IC50 in data set [3] turned out to be 0.2.

As to `CC(=O)Nc1cc(-c2c(-c3ccc(F)cc3)nc(S/C=C\C(=O)O)n2CC(O)CO)ccn1` (stereo not given), the results for the 50% inhibitory concentration (IC50) in data set [1] and in data set [2] were 226 nM and 723 nM, respectively. The Ratio IC50 in data set [3] came out at 0.3.
